“And” between values parts separate entries of the source, which are not always exact repeats. Identical values can stand only once. Like-named read-outs stand apart in the source and are kept apart here. Values belong to the molecule of their own block, whether it stands above or below them. Residues, ends and D or L forms follow the SMILES beside them. *: point of attachment. X1 = O=C(O)CC(N*)C(=O)COc1c(F)cccc1F; Quinaldoyl = O=C(c1ccc2ccccc2n1)*; Cbz = O=C(OCc1ccccc1)*; CH2F = FC*
How the values were obtained:
recombinant human Casp2 = target: T1, recombinant human Casp2 (Homo sapiens, UniProt P42575); test: Enzyme mechanistic studies (Ki, k3, k3/KI), Caspase-2; assay type: biochemical; settings: for Ki ratio (Casp3/Casp2): reversible inhibitors
T1 sequence (P42575 170-325 limits assumed): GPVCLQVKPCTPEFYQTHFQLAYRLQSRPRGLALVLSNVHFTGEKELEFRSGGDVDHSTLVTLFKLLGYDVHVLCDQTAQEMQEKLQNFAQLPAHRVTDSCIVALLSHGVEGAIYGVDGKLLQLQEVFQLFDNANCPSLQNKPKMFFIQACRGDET
T1 sequence (P42575 348-452 limits assumed): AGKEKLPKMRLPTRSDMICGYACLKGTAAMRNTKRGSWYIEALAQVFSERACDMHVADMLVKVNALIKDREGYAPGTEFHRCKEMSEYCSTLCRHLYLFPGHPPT
Description: (§1) For reversible inhibitors, the mechanisms of inhibition were determined by varying substrate and inhibitor concentrations and using Lineweaver−Burk representations to determine the inhibition constants Ki of competitive inhibitors (Ki = [E][I]/[EI]). For suicide inhibitors, inactivation can be represented by the minimum kinetic scheme (Eq. 2), where E and I are the free forms of enzyme and inhibitor, E * I a kinetic chimera of the Michaelis complex and E − I the covalent complex (inactivated enzyme).2 E+I⇄KIE*I→k3E−I
(§2) KI and k3 are the kinetic constants characterizing the inactivation process and the k3/KI ratio is an index of the inhibitory potency. The first-order rate constant, k3, and the apparent dissociation constant, KI, were determined for Caspase-2 and -3 using the progress curve method. Briefly, the enzyme activities were measured continuously for 120 min. To determine the kinetic parameters, progress curves were obtained at several inhibition concentrations using fixed substrate concentration. The product released for each inhibitor concentration was plotted versus the time following Eq. 3 where the constant π depended on [I]’, a modified inhibitor concentration due to substrate competition, according to Eq. 4. [I]’ is defined by Eq. 5, where KM was Michaelis constant for the enzymatic hydrolysis of the appropriate fluorogenic substrate. The ratio k3/KI was obtained by fitting the experimental data to the equations (F.U., fluorescence unit):3 F.U.=∫0tvidt+F.U0−vo×e^−π×t/π+F.U.0 4 π=k3×[I]^′/KI+[I]^′ 5 [I]^′=[I]/1+S/KM
Linear and nonlinear regression fits of the experimental data to the equations were performed with KaleidaGraph software. The experimental conditions were [Caspase-2]0 = 0.2 nM, [Ac-VDVAD-AMC]0 = 25 µM and [Caspase-3]0 = 0.1 nM, [Ac-DEVD-AMC]0 = 10 µM; [I]0 = 0–100 µM.

recombinant human Casp3 = target: T2, recombinant human Casp3 (Homo sapiens, UniProt P42574); test: Enzyme mechanistic studies (Ki, k3, k3/KI), Caspase-3; assay type: biochemical
T2 sequence (P42574 29-175 limits assumed): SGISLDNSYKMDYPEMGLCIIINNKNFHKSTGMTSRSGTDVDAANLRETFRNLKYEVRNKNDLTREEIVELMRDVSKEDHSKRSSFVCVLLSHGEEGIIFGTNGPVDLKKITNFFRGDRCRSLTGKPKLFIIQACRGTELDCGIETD
T2 sequence (P42574 176-277 limits assumed): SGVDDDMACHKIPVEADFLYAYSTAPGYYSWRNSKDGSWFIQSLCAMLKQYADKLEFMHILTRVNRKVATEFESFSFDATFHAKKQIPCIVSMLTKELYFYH
Description: as §1, §2
Linear and nonlinear regression fits of the experimental data to the equations were performed with KaleidaGraph software.

HeLa cells = test: Vincristine-induced HeLa cell death (propidium iodide, flow cytometry); assay type: cell-based, human; settings: 1 h pretreatment, 20 nM vincristine 44 h; for inhibition of vincristine-induced cell death: inhibitor 30 µM; for effect against vincristine-induced cell death: indicated doses
Description: HeLa cells (obtained from ATCC) were cultured in Dulbecco’s Modified Eagle Medium (DMEM, High Glucose, GlutaMAX™, Pyruvate) supplemented with antibiotics and 10% fetal calf serum (FCS) (Gibco, Life Technologies) and maintained in T75 Flasks at 1 × 10^6 cells per flask. Twenty-four hours before treatments, HeLa cells were transferred to 6-well plates (8 × 10^4 cells/well). The lymphoblastoid cell line Molt4cl8 was a gift from Dr. Bernard Krust (Inserm, University Paris 5) and was cultured in RPMI 1640 Glutamax medium supplemented with Hepes, antibiotics, and 10% FCS. HEK293 cells were obtained from ATCC (CRL-1573) and cultured in DMEM with Glutamax and 25 mM glucose (Life Technologies) supplemented with 10% FCS and antibiotics. For cell death induction, the following agents were added to cell cultures: Vincristine (Sigma) and Panobistat (LBH589; Selleck). Cell death was analyzed using fluorescence microscopy (Axio-observer Z1, Zeiss; equipped with CCD camera CoolsnapHQ2, Ropert Scientific) and cytofluorometry (MACSQuant® VYB; Miltenyi Biotec, Bergisch Gladbach, Germany) after labeling with propidium iodide (1 µg/mL; 10 min; 37 °C; Life Technologies) and Hoechst 33342 (1 µg/mL; 5 min; RT; Sigma).
Fig. 2 q33 and h33 are protective against the cytocidal effect of Vincristine. a Vincristine induces HeLa cell death. Cells were incubated for 44 h at 37 °C with 20 nM Vincristine (VCR), then incubated with propidium iodide at 2 μg/mL for 10 min and analyzed by flow cytometry to quantify plasma membrane permeabilization. Histograms show fluorescence intensity detected by flow cytometry (one representative experiment) in the presence (VCR) or Absence (Co.) of Vincristine. % of propidium iodide-positive cells are indicated for both conditions. b Dose–response of Vincristine-induced cell death. HeLa cells were incubated and treated as in (a) with the indicated doses of Vincristine (VCR) and analyzed by flow cytometry. […] Representative fluorescence microscopy micrographs of cells treated for 44 h with 20 nM vincristine (VCR) or not (Co.) and stained with Hoechst 33342. Vincristine induces progressive nuclear changes with first condensed nuclei (arrows) and then apoptotic bodies (dashed arrow). d Broad-spectrum irreversible caspase inhibitors prevent vincristine-induced cell death. HeLa cells were pretreated for 1 hr with the indicated broad-spectrum irreversible caspases inhibitors (z-VAD(OMe)-fmk at 30 μM, Q-VD-OPh 30 μM, Emricasan 10 μM, or the negative control Q-VE-OPh 30 μM), then treated with vincristine as in panel (a), and analyzed by flow cytometry. Histograms show the mean ± SD of 3 independent experiments (***p value < 0.001). e Effect of the reversible Caspase-2 inhibitors q33 and h33 against vincristine-induced cell death. HeLa cells were pretreated for 1 h with the indicated doses of q33 or h33, then treated with vincristine as in panel a, and analyzed by flow cytometry. Histograms show the mean ± SD of three independent experiments (*p value < 0.1). TEXT PRINTED IN THE PICTURE: (a) VCR: 39,5 % DOUBTS OF THE COPYIST ABOUT THIS PICTURE: Panel a: the picture prints no measure beside "39,5 %" and "4.1%". I assigned 39,5 % to VCR only because it stands by the grey VCR peak. / Panel a: "4.1%" seems to belong to the untreated control (Co.). That is not a substance, so it is left out.
Fig. 5 LJ2 inhibits cell death induced by microtubule destabilization and hydroxamic acid-based deacetylase (HDAC) inhibition. a Effect of the irreversible Caspase-2 inhibitors LJ2 against vincristine-induced cell death. HeLa cells were pretreated for 1 h with the indicated doses of LJ2, Q-VD-OPh, or Q-LETD-OPh, then treated with vincristine (VCR) as in Fig. 2, then incubated with propidium iodide at 2 μg/mL for 10 min and analyzed by flow cytometry. Histogram data are mean ± SD (n = 3, *p value < 0.01). b Effect of Caspases-inhibitors against Panobistat (LBH589)-induced cell death. […]

[1] = target: T3, human active recombinant caspase-2 (Homo sapiens, UniProt P42575); test: In vitro caspase activity and inhibition assay (IC50), Caspase-2; assay type: biochemical
T3 sequence (P42575 170-325 limits assumed): T1 sequence (P42575 170-325 limits assumed)
T3 sequence (P42575 348-452 limits assumed): T1 sequence (P42575 348-452 limits assumed)
Description: Stock solutions were stored at −80 °C.

[2] = target: T4, human active recombinant Caspase-3 (Homo sapiens, UniProt P42574); test: In vitro caspase activity and inhibition assay (IC50), Caspase-3; assay type: biochemical
T4 sequence (P42574 29-175 limits assumed): T2 sequence (P42574 29-175 limits assumed)
T4 sequence (P42574 176-277 limits assumed): T2 sequence (P42574 176-277 limits assumed)
Description: The human active recombinant Caspase-3 (#707-C3) was purchased from R&D Systems (Minneapolis, USA). […] Stock solutions were stored at −80 °C. […] Caspase inhibitors were solubilized in DMSO at 10 mM and stored at −80 °C.
Initial velocity (V0) was determined from the linear portion of the progress curve. The composition of the activity buffer was: 20 mM HEPES, pH 7.4; 0.1% CHAPS, 5 mM DTT, 2 mM EDTA; 800 mM sodium succinate for Caspase-2 (0.2 nM) with 25 µM of Ac-VDVAD-7-amino-3-methylcoumarin (AMC) and 20 mM HEPES, pH 7.4; 0.1% CHAPS, 5 mM DTT, 2 mM EDTA; supplemented with 1 mg/mL of stabilizing agent bovine serum albumin (BSA) for Caspase-3 (0.1 nM) with 10 μM of Ac-DEVD-AMC. Compounds (0.001–100 µM) were tested in duplicate for each inhibitor concentration to detect their inhibitory potential. Enzymes and compounds were incubated for 30 min before initiating enzymatic reaction by adding substrate. Initial rates determined in control experiments (V0) were considered as 100% of the caspase activity; initial rates that were below 100% in the presence of tested compound (Vi) were considered as inhibition. The inhibitory activity of compounds was expressed as IC50 (Inhibitor concentration giving 50% inhibition). The values of IC50 were calculated by fitting the experimental data using Mars data Analysis 2.0 and KaleidaGraph software.1 %Inhibition=1001−Vi/V0=100I0/IC50+I0

[3] = system: Casp2-S1P-SREBP2 activation pathway in HEK 293 cells; test: Casp2-dependent S1P cleavage and SREBP2 activation in transfected HEK 293 cells (WB); settings: 10 µM, 16 h
Description: To test SREBP processing, HEK 293 (ATCC® CRL-1573) cells were plated at a density of 0.5 × 10^5 per well (6-well plates). The next day, 1 μg of each cDNAs were transfected using lipofectamine 3000 (Thermo Fisher Scientific, MA) according to the manufacturer’s instruction. cDNAs used were empty vector (EV), Casp2-HA, PIDD-Flag, RAIDD-His, Myc-S1P, and V5-SREBP2. After 4 h, cells were incubated in DMEM/F12 medium supplemented with indicated Casp2 inhibitors (10 μM) for 16 h. Whole-cell lysates were prepared in lysate buffer (150 mM Tris-HCl, pH 7.4, 10% sodium-deoxycholate, 100 mM NaCl, 100 mM EDTA, 100 mM PMSF, 200 mM NaF, 100 mM Na3VO4, and a mixture of protease inhibitors). […] Equal quantities of proteins were subjected to immunoblot (WB) analysis with anti-Flag (#F7425 Sigma-Aldrich), anti-HA (#1867431, Roche), anti-Casp2 (#ALX-804-356, 11B4, Enzo Life Sciences), anti-V5 monoclonal antibody (#13202, Cell Signaling Technology), anti-Casp3 (#9661, #9662, #9664, Cell Signaling Technologies), and anti-HSP90 (#sc-101494, Santa Cruz Technologies).
HEK 293 cells were transfected with indicated plasmids in order to overexpress SREBP2, S1P, RAIDD, PIDD1, and Casp-2. […] HEK 293 cells were transfected with the indicated plasmids. […] Then, whole cell extracts (WCL) were prepared and subjected to WB analysis to detect Casp2 (through HA tag), RAIDD (through 6HIS tag), and PIDD1, PIDD1-C, PIDD1-CC (through Flag tag).

[4] = system: Swiss mice hippocampal neurons; test: Aβ oligomer-induced dendritic spine loss in hippocampal primary cultures; assay type: cell-based, mouse; settings: 100 nM, 6 h of exposure
Description: For the monoculture model (MBBT4 devices), 20 × 10^3 hippocampal neurons were seeded in each chamber. For the compartmentalized coculture model (neuronal diode in MBBT5 devices), 40 × 10^3 cortical cells and 15 × 10^3 hippocampal cells were seeded in each input chamber and output chamber, respectively. The culture medium was renewed every 5 days. Microfluidic chips were placed in Petri dishes containing 0.1% EDTA (Sigma) and incubated at 37 °C in a 5% CO2 atmosphere. In the neuronal diodes, cortical axons entered the microchannels and reached the hippocampi chamber in around 4–5 days. In both the monoculture and coculture systems, cells were cultured for 3 weeks to allow high dendrites and synapse density and intense electrical firing.
Cells were treated with caspase inhibitors and/or Aβ1–42 at 20 days in vitro. For the hippocampal monocultures, the culture medium was removed and replaced by fresh medium optionally containing 10 nM Aβ1–42 oligomers or monomers, with or without caspase inhibitors. After 6 h, cells were fixed, permeabilized, and subjected to immunolabelling. For cortico-hippocampal compartmentalized cocultures, the medium of the input chamber (cortical) was replaced by fresh medium optionally containing 100 nM Aβ1–42 oligomers or monomers, whereas the medium of the output (hippocampal) chamber was replaced by fresh medium optionally containing, or not, caspases inhibitors. […]
Immunostaining was performed directly in microfluidic chambers as described [38]. […] Images were analyzed using ImageJ software (NIH, Bethesda, MD, USA).
Synaptic disconnection was assessed as described [39] with slight modifications. Briefly, in hippocampal monocultures, synaptic disconnection was assessed through fluorescence microscopy by counting phalloidin clusters affixed to MAP2 and Bassoon. In cortico-hippocampal compartmentalized cocultures, synaptic disconnection was assessed by counting α-Synuclein presynaptic clusters affixed to MAP2-positive hippocampal dendrites. […] The images were similarly processed with ImageJ software before being used for quantification: the brightness/contrast of all control images were optimized manually to eliminate the background and to maximize the signal. The means of the minimum and maximum intensities were then calculated in the control condition and these settings were applied to all images. The brightness/contrast of all images was optimized manually to eliminate the background and maximize the intensity of the signal. α-synuclein/ MAP2 and Phalloidin/MAP2/Bassoon merges were then used for quantification. The number of spines was determined by counting individual clusters along ten dendritic regions (100 µm length each) in three independent experiments for every epitope. Only synapses detected on or near the neurites were included for analysis.

[5] = irreversible inhibitors, progress curve method
[6] = reversible competitive inhibitors, Lineweaver-Burk, read-out: Enzyme assays Casp2 Ki
[7] = reversible competitive inhibitors, Lineweaver-Burk, read-out: Enzyme assays Casp3 Ki (converted)
[8] = 30 min preincubation, 0.2 nM Caspase-2, 25 µM Ac-VDVAD-AMC, read-out: Enzyme assays Casp2 IC50
[9] = 30 min preincubation, 0.1 nM Caspase-3, 10 µM Ac-DEVD-AMC, read-out: Enzyme assays Casp3 IC50 (converted)

Molecule: CC(C)[C@H](NC(=O)c1ccc2ccccc2n1)C(=O)N[C@@H](CC(=O)O)C(=O)N[C@H](C(=O)N1CC[C@H](CC(C)(C)C)[C@H]1C(=O)NC(CC(=O)O)C(=O)COc1c(F)cccc1F)C(C)C (stereo partly shown) [LJ3b]
- k3/Ki ratio against Casp2, times lower than the one of the a isomer (LJ2a or LJ3a) (recombinant human Casp2): more than 2000 times
- Casp2 k3/KI (recombinant human Casp2; [5]): 823 M⁻¹ s⁻¹
- Ki (recombinant human Casp2; irreversible inhibitors, progress curve method, read-out: Casp2 KI): 8540 ± 300 nM
- Casp3 k3 (recombinant human Casp3; [5]): 0.8 ± 6 × 10^−5 ms^−1
- Casp3 k3/KI (recombinant human Casp3; [5]): 9 M⁻¹ s⁻¹
- Ki (recombinant human Casp3; irreversible inhibitors, progress curve method, read-out: Casp3 KI): 84200 nM

Molecule: CC(C)C(NC(=O)c1ccc2ccccc2n1)C(=O)NC(CCC(=O)O)C(=O)COc1c(F)cccc1F (stereo not shown) [Q-VE-OPh]
- inhibition of vincristine-induced cell death (HeLa cells): not

Molecule: CC(=O)N[C@H](C(=O)N[C@@H](CC(=O)O)C(=O)N[C@H](C(=O)N1CC[C@@H](OC(C)C)[C@@H]1C(=O)N[C@H]1CC(=O)OC1O)C(C)C)C(C)C (stereo partly shown) [c33, reference compound]
- IC50 [1]: 271 nM
- IC50 [2]: 6720 nM
- Ki (recombinant human Casp2; [6]): 122 nM
- Ki (recombinant human Casp3; [7]): 2440 nM

- IC50 [1, 8]: 11 nM
- IC50 [2, 9]: 4570 nM
- Ki (recombinant human Casp2; [6]): 10.9 nM
- Ki ratio (Casp3/Casp2) (recombinant human Casp2): 597
- Ki (recombinant human Casp3; [7]): 6510 nM
Molecule: CC(=O)N[C@H](C(=O)N[C@@H](CC(=O)O)C(=O)N[C@H](C(=O)N1CC[C@H](CC(C)(C)C)[C@@H]1C(=O)N[C@H]1CC(=O)OC1O)C(C)C)C(C)C (stereo partly shown) [h33, reference compound]
- effect against vincristine-induced cell death (HeLa cells): showed cytoprotective effect

Molecule: CC(=O)NC(C(=O)NC(CC(=O)O)C(=O)NC(C(=O)N1CCC(c2ccccc2)C1C(=O)NC1CC(=O)OC1O)C(C)C)C(C)C (stereo not shown) [k33, reference compound]
- IC50 [1]: 178 nM
- IC50 [2]: 1960 nM
- Ki (recombinant human Casp2; [6]): 90.5 nM
- Ki (recombinant human Casp3; [7]): 2770 nM

- IC50 [1, 8]: 15 nM
- IC50 [2, 9]: 2540 nM
- Ki (recombinant human Casp2; [6]): 24 nM
- Ki ratio (Casp3/Casp2) (recombinant human Casp2): 94.5
- Ki (recombinant human Casp3; [7]): 2370 nM
Molecule: CC(=O)N[C@H](C(=O)N[C@@H](CC(=O)O)C(=O)N[C@H](C(=O)N1CCc2ccc(C)cc2[C@@H]1C(=O)N[C@H]1CC(=O)OC1O)C(C)C)C(C)C (stereo partly shown) [q33, reference compound]
- effect against vincristine-induced cell death (HeLa cells): showed cytoprotective effect

Molecule: COC(=O)C[C@H](NC(=O)[C@H](C)NC(=O)[C@@H](NC(=O)OCc1ccccc1)C(C)C)C(=O)CF [z-VAD(Ome)-fmk] (Cbz-Val-Ala-Asp(OMe)-CH2F)
- inhibition of vincristine-induced cell death (HeLa cells): more than 80%

Molecule: CC(C)[C@H](NC(=O)c1ccc2ccccc2n1)C(=O)N[C@@H](CC(=O)O)C(=O)N[C@H](C(=O)N[C@@H](C)C(=O)NC(CC(=O)O)C(=O)COc1c(F)cccc1F)C(C)C (stereo partly shown) [Δ2Me-TRP601, Quinolin-2-carbonyl-VDVAD-CH2-O(2,6F2)Ph, reference compound] (Quinaldoyl-VDVA-X1)
- IC50 [2]: 0.31 ± 0.01 nM
- Casp2 k3 (recombinant human Casp2; [5]): 8,08 ms^−1
- Casp2 k3/KI (recombinant human Casp2; [5]): ~ 1,586,020 M^−1 s^−1 and 1 586 020 M^−1 s^−1
- KI (inactivation) (recombinant human Casp2; [5]): 5.49 nM
- Casp3 k3 (recombinant human Casp3; [5]): 1,85 ms^−1
- Casp3 k3/KI (recombinant human Casp3; [5]): 1 613 405 M^−1 s^−1
- KI (inactivation) (recombinant human Casp3; [5]): 1.17 nM
- S1P cleavage [3]: abolished
- SREBP2 activation [3]: abolished
- impact on RAIDD, PIDD1, and Casp2 expression [3]: no significant impact

Molecule: Aβ1–42 oligomers: oligomers of human β-amyloid1-42 peptide [reference compound]
- decrease in spine density [4]: 50%

Molecule: Q-LETD-OPh
- effect against vincristine-induced cell death (HeLa cells): no effect
